# Assay results from ChEMBL document CHEMBL1143343, “Cooperative alkylation of double-strand human telomere repeat sequences by PI polyamides with 11-base-pair recognition based on a heterotrimeric design” (Bioorg Med Chem, 2009).
# Activity calls are given as the source filed them. The rule behind the calls is not given here.
# Columns and labels:
# Calf thymus DNA [1] = experiment: Binding affinity to human telomeric repeat sequence in 219 bp calf thymus DNA fragment assessed as DNA alkylating activity at 200 nM after 12 hrs by PAGE in presence of distamycin A; format: nucleic-acid assay
# Calf thymus DNA [2] = experiment: (§1) Binding affinity to site 2 human telomeric 5'GGTTAGGGTTA3' sequence in 219 bp calf thymus DNA fragment assessed as DNA alkylating activity at 20 to 500 nM after 12 hrs by PAGE in presence of {3-[(4-{[4-({4-[(4-Acetylamino-1-methyl-1H-pyrrole-2-carbonyl)-amino]-1-methyl-1H-pyrrole-2-carbonyl}-amino)-1-methyl-1H-pyrrole-2-carbonyl]-amino}-1-methyl-1H-pyrrole-2-carbonyl)-amino]-propyl}-dimethyl-ammonium; format: nucleic-acid assay
# Calf thymus DNA [3] = experiment: Binding affinity to human telomeric repeat sequence in 219 bp calf thymus DNA fragment assessed as DNA alkylating activity at 20 to 500 nM after 12 hrs by PAGE; format: nucleic-acid assay
# Jurkat [4] = experiment: Cytotoxicity against human Jurkat cells after 48 hrs by WST-8 assay; format: functional, cell-based
# Calf thymus DNA [5] = experiment: Binding affinity to site 2 human telomeric 5'GGTTAGGGTTA3' sequence in 219 bp calf thymus DNA fragment assessed as DNA alkylating activity at 20 to 500 nM after 12 hrs by PAGE in presence of distamycin A; format: nucleic-acid assay
# Calf thymus DNA [6] = experiment: as §1, with “site 4” for “site 2”; format: nucleic-acid assay
# Calf thymus DNA [7] = experiment: Binding affinity to site 3 human telomeric 5'GGTTAGGGTTA3' sequence in 219 bp calf thymus DNA fragment assessed as DNA alkylating activity at 20 to 500 nM after 12 hrs by PAGE in presence of distamycin A; format: nucleic-acid assay
# Calf thymus DNA [8] = experiment: Binding affinity to human telomeric repeat sequence in 219 bp calf thymus DNA fragment assessed as DNA alkylating activity at 200 nM after 12 hrs by PAGE in presence of {3-[(4-{[4-({4-[(4-Acetylamino-1-methyl-1H-pyrrole-2-carbonyl)-amino]-1-methyl-1H-pyrrole-2-carbonyl}-amino)-1-methyl-1H-pyrrole-2-carbonyl]-amino}-1-methyl-1H-pyrrole-2-carbonyl)-amino]-propyl}-dimethyl-ammonium; format: nucleic-acid assay
# Calf thymus DNA [9] = experiment: Binding affinity to site 4 human telomeric 5'GGTTAGGGTTA3' sequence in 219 bp calf thymus DNA fragment assessed as DNA alkylating activity at 20 to 500 nM after 12 hrs by PAGE in presence of distamycin A; format: nucleic-acid assay
# Calf thymus DNA [10] = experiment: as §1, with “site 3” for “site 2”; format: nucleic-acid assay
# Calf thymus DNA [11] = experiment: Binding affinity to human telomeric repeat sequence in 219 bp calf thymus DNA fragment assessed as DNA alkylating activity at 20 to 500 nM after 12 hrs by PAGE in presence of 3-(4-(4-(4-(3-(3-(4-(4-(4-(4-acetamido-1-methyl-1H-pyrrole-2-carboxamido)-1-methyl-1H-pyrrole-2-carboxamido)-1-methyl-1H-pyrrole-2-carboxamido)-1-methyl-1H-pyrrole-2-carboxamido)propanamido)propanamido)-1-methyl-1H-pyrrole-2-carboxamido)-1-methyl-1H-pyrrole-2-carboxamido)-1-methyl-1H-pyrrole-2-carboxamido)-N,N-dimethylpropan-1-aminium; format: nucleic-acid assay
# Jurkat [12] = experiment: Cytotoxicity against human Jurkat cells after 48 hrs by WST-8 assay in presence of 10 uM distamycin A pretreated 24 hrs before compound addition; format: functional, cell-based
# Jurkat [13] = experiment: Cytotoxicity against human Jurkat cells after 48 hrs by WST-8 assay in presence of 10 uM {3-[(4-{[4-({4-[(4-Acetylamino-1-methyl-1H-pyrrole-2-carbonyl)-amino]-1-methyl-1H-pyrrole-2-carbonyl}-amino)-1-methyl-1H-pyrrole-2-carbonyl]-amino}-1-methyl-1H-pyrrole-2-carbonyl)-amino]-propyl}-dimethyl-ammonium pretreated 24 hrs before compound addition; format: functional, cell-based
smiles,measurement,setting,value
CC(=O)Nc1cn(C)c(C(=O)Nc2cn(C)c(C(=O)Nc3cn(C)c(C(=O)NCCC(=O)NCCC(=O)Nc4cn(C)c(C(=O)Nc5cn(C)c(C(=O)Nc6cn(C)c(C(=O)Nc7ccc8[nH]c(C(=O)N9CC(CCl)c%10c9cc(O)c9ccccc%109)cc8c7)n6)n5)n4)n3)n2)n1 (stereo not drawn),Activity,Calf thymus DNA [1],Active
same,Activity,Calf thymus DNA [2],Active
same,Activity,Calf thymus DNA [3],inactive
same,IC50,Jurkat [4],100 nM
same,Activity,Calf thymus DNA [5],Active
same,Activity,Calf thymus DNA [6],Active
same,Activity,Calf thymus DNA [7],Active
same,Activity,Calf thymus DNA [8],Active
same,Activity,Calf thymus DNA [9],Active
same,Activity,Calf thymus DNA [10],Active
same,Activity,Calf thymus DNA [11],Active
same,IC50,Jurkat [12],32 nM
same,IC50,Jurkat [13],79 nM
